From PMC11661359, “Structure guided functional analysis of the S. cerevisiae Mre11 complex” (Research Square, 2024)

T1: S. cerevisiae Mre11-Rad50 (MR) complex (Saccharomyces cerevisiae, UniProt P12753, K192A/K195A/K196A, form not given)
T1 construct: full-length Rad50 and Mre11 (C-terminal 1xFLAG on Mre11 given for MR-EQ), purified from yeast; 2:2 complex, no Xrs2; with Double-strand break repair protein MRE11
T1 sequence (P12753 1-1312 K192A/K195A/K196A): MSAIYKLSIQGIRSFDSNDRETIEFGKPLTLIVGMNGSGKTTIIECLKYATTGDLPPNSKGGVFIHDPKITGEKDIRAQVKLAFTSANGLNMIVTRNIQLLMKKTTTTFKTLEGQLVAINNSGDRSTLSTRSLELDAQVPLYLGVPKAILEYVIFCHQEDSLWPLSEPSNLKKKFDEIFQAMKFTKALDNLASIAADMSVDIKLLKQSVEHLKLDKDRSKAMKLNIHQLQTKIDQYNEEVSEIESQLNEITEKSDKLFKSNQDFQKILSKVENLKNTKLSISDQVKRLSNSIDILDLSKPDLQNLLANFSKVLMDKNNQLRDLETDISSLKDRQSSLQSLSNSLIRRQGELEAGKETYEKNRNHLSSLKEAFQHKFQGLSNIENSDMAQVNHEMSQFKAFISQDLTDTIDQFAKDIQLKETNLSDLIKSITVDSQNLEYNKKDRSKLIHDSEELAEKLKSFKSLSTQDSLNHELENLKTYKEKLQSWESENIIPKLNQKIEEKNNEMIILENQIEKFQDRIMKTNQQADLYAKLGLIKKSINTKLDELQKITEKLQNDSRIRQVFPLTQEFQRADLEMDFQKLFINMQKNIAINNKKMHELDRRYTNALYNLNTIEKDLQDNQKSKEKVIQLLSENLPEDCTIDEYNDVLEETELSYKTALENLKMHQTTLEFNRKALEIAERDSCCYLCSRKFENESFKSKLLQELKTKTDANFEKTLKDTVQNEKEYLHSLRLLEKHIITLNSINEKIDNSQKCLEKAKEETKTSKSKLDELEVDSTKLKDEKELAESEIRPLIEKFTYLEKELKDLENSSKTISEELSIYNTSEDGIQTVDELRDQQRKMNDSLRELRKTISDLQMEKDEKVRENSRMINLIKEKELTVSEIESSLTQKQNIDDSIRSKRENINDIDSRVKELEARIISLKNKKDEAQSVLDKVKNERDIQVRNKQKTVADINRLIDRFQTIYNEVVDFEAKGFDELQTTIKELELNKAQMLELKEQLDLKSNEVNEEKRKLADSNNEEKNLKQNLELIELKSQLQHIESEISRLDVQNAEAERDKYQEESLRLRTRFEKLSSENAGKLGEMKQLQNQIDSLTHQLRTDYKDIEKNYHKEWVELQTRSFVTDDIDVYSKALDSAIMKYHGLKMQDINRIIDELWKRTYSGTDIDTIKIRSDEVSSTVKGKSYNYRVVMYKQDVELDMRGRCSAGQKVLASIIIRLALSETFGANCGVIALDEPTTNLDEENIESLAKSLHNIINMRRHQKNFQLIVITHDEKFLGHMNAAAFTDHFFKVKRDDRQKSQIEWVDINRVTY
T1 sequence (P32829 1-692 partner): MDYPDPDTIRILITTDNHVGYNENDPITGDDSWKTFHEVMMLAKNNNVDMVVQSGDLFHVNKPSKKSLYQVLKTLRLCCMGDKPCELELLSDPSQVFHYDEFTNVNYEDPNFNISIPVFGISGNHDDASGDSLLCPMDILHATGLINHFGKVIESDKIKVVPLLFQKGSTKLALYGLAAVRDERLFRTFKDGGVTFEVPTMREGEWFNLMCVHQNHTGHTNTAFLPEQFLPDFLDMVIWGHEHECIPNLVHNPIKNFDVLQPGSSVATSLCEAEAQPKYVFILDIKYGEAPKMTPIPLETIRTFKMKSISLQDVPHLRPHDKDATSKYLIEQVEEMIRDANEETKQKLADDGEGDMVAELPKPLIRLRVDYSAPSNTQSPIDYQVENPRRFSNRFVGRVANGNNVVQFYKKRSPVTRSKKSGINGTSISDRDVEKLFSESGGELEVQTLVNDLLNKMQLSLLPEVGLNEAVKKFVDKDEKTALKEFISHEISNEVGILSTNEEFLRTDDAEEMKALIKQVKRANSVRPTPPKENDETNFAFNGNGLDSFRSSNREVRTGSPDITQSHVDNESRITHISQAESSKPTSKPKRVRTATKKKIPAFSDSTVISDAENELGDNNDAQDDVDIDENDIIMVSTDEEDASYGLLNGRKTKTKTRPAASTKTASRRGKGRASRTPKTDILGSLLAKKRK

T2: S. cerevisiae Mre11-Rad50 (MR) complex (Saccharomyces cerevisiae, UniProt P12753, E1235Q, form not given)
T2 construct: full-length Rad50 and Mre11 (C-terminal 1xFLAG on Mre11 given for MR-EQ), purified from yeast; 2:2 complex, no Xrs2; with Double-strand break repair protein MRE11
T2 sequence (P12753 1-1312 E1235Q): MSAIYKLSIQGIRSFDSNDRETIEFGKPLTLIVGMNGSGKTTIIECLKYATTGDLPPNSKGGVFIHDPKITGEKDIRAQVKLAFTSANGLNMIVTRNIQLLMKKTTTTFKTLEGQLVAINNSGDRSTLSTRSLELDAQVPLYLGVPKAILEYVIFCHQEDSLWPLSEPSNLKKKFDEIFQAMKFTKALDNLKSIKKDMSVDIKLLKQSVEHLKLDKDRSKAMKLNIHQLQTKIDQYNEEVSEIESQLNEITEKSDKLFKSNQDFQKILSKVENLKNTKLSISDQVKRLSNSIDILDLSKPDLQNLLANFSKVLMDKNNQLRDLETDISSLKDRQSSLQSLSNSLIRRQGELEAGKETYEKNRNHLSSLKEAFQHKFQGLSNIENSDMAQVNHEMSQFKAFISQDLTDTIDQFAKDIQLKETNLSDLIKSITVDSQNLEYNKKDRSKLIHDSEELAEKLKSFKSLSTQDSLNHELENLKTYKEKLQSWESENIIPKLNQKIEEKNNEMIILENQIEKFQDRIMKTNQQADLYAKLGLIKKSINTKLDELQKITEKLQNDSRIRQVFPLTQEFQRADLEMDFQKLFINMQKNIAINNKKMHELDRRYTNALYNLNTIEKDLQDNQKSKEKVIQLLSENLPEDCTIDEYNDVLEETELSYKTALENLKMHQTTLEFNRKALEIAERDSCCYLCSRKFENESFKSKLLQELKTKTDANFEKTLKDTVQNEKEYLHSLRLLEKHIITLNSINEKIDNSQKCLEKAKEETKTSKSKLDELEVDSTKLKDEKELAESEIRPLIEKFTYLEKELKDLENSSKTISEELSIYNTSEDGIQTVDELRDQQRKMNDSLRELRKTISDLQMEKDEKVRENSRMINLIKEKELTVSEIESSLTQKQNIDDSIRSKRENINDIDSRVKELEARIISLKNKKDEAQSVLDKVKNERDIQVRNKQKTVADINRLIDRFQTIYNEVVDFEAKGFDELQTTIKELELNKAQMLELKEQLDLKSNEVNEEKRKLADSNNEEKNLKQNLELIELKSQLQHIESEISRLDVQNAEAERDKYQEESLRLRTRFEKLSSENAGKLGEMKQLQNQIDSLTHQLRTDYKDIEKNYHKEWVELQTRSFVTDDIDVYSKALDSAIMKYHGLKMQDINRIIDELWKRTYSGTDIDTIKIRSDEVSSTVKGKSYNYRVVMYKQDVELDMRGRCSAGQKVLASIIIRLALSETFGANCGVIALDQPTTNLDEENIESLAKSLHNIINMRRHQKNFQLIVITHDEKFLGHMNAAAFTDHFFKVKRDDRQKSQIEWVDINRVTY
T2 sequence (P32829 1-692 partner): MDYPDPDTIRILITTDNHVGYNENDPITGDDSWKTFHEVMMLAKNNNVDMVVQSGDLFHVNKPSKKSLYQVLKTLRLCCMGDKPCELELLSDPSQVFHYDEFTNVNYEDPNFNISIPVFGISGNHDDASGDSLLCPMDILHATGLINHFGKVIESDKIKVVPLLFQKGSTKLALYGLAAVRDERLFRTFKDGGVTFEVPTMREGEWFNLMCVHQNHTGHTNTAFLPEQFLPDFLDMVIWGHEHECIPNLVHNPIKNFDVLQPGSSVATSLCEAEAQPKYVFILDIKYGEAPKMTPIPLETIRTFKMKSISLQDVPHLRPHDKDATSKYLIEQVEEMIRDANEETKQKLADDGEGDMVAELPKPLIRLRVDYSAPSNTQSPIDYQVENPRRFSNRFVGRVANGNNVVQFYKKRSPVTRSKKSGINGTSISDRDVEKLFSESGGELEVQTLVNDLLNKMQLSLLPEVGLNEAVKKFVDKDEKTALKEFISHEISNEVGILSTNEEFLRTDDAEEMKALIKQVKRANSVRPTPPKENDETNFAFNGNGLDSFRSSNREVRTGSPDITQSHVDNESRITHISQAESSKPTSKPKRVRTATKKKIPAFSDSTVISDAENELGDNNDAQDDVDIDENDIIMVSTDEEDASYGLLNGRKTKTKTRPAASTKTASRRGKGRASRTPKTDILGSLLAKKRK

T3: S. cerevisiae Rad50-E1235Q (R^EQ of the purified MR^EQ complex) (S. cerevisiae, UniProt P12753 1-1312, E1235 residue of Rad50 was mutated to Q)
T3 construct: Rad50, S. cerevisiae; residues 239-1089 (coiled coil arm and Zn hook) are said to be flexible and not traced; also called Rad50-EQ; source: S. cerevisiae, purified from yeast extracts together with Mre11-FLAG (FLAG-Agarose, Heparin-Sepharose, gel filtration)
T3 sequence: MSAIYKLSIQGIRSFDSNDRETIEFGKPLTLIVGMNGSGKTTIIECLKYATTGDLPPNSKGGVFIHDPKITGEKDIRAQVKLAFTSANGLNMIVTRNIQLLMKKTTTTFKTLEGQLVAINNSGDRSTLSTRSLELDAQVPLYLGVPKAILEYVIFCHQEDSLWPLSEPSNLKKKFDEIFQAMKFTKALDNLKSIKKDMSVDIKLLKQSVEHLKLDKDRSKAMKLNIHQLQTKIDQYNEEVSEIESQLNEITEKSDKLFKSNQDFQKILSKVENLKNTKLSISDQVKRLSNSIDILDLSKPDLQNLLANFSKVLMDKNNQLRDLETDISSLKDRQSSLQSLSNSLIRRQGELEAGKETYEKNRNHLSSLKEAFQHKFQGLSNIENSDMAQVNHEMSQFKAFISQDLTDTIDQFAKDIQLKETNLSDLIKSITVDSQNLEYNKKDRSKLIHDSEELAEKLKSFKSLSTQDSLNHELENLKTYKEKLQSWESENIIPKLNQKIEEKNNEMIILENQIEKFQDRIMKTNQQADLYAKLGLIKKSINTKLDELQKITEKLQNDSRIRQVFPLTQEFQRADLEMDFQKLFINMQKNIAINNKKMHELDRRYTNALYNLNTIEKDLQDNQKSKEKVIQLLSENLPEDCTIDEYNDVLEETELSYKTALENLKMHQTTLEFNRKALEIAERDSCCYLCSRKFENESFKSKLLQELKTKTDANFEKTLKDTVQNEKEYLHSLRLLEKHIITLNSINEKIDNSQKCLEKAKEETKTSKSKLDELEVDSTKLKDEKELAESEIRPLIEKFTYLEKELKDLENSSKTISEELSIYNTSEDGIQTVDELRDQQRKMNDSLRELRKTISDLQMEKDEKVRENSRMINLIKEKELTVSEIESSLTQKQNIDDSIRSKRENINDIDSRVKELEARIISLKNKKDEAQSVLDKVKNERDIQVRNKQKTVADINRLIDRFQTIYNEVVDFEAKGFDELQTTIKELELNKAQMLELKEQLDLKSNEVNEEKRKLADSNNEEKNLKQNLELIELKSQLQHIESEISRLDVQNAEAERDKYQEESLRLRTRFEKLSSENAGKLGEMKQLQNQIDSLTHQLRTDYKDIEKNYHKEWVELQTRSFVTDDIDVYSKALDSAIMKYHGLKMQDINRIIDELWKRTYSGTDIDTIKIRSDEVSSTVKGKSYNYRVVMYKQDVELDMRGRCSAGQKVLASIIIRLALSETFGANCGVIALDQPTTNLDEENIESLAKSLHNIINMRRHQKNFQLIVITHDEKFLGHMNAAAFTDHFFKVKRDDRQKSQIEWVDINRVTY


Key:
[1] = molecular target: T1, S. cerevisiae Mre11-Rad50 (MR) complex; assay: ATP hydrolysis, radiolabelled phosphate by thin-layer chromatography; assay type: biochemical; conditions: 0-2 uM MR, ss and dsDNA, MgCl2, 90 min; labelled compound
[2] = molecular target: T2, S. cerevisiae Mre11-Rad50 (MR) complex; assay: cryo-EM structure, […] Å; assay type: binding; conditions: with 83-mer dsDNA, MgCl2 and MnCl2; ATP bound at Walker A/B interface of Rad50 dimer; hydrolysis-deficient mutant
[3] = molecular target: T3, S. cerevisiae Rad50-E1235Q (R^EQ of the …); assay: cryo-EM structure; purified MR^EQ incubated with a 83-mer dsDNA in the presence of ATP, MgCl2 and MnCl2; 3.2 Å; conditions: both partners purified

Molecule | ATP hydrolysis, radiolabelled phosphate by thin-layer chromatography [1] | cryo-EM structure, 3.2 Å [2] | binding result [3]
Nc1ncnc2c1ncn2[C@@H]1O[C@H](COP(=O)(O)OP(=O)(O)OP(=O)(O)O)[C@@H](O)[C@H]1O [ATP] | Rad50–3KA, Rad50-K60A R1201A and Rad50-R131A R1201A were as defective as the Rad50-EQ mutant | MR^EQ was incubated with a 83-mer double stranded DNA (dsDNA) in the presence of ATP | –
S. cerevisiae Mre11 with a C-terminal 1xFLAG tag (Mre11 of the purified MR^EQ complex) (enzyme, Mre11, S. cerevisiae; residues 413-441 and 508-692 are said to be flexible and not traced; Two symmetry-related Mre11 subunits stand in the structure; also called M of MR^EQ; source: S. cerevisiae, purified from yeast extracts together with Rad50-E1235Q (FLAG-Agarose, Heparin-Sepharose, gel filtration); not shown: 1xFLAG, C-terminal, kept) MDYPDPDTIRILITTDNHVGYNENDPITGDDSWKTFHEVMMLAKNNNVDMVVQSGDLFHVNKPSKKSLYQVLKTLRLCCMGDKPCELELLSDPSQVFHYDEFTNVNYEDPNFNISIPVFGISGNHDDASGDSLLCPMDILHATGLINHFGKVIESDKIKVVPLLFQKGSTKLALYGLAAVRDERLFRTFKDGGVTFEVPTMREGEWFNLMCVHQNHTGHTNTAFLPEQFLPDFLDMVIWGHEHECIPNLVHNPIKNFDVLQPGSSVATSLCEAEAQPKYVFILDIKYGEAPKMTPIPLETIRTFKMKSISLQDVPHLRPHDKDATSKYLIEQVEEMIRDANEETKQKLADDGEGDMVAELPKPLIRLRVDYSAPSNTQSPIDYQVENPRRFSNRFVGRVANGNNVVQFYKKRSPVTRSKKSGINGTSISDRDVEKLFSESGGELEVQTLVNDLLNKMQLSLLPEVGLNEAVKKFVDKDEKTALKEFISHEISNEVGILSTNEEFLRTDDAEEMKALIKQVKRANSVRPTPPKENDETNFAFNGNGLDSFRSSNREVRTGSPDITQSHVDNESRITHISQAESSKPTSKPKRVRTATKKKIPAFSDSTVISDAENELGDNNDAQDDVDIDENDIIMVSTDEEDASYGLLNGRKTKTKTRPAASTKTASRRGKGRASRTPKTDILGSLLAKKRK | – | – | binds
